This passage reports IC50 results from patent US11384055B2 (BIOMARIN PHARMACEUTICAL INC., priority 2017, dated 2022).

This assay concerns the target T1, Human GO (Homo sapiens, UniProt Q9UJM8).
T1 construct: purchased Novus Biologicals NBP1-72412
T1 sequence (Q9UJM8 1-370): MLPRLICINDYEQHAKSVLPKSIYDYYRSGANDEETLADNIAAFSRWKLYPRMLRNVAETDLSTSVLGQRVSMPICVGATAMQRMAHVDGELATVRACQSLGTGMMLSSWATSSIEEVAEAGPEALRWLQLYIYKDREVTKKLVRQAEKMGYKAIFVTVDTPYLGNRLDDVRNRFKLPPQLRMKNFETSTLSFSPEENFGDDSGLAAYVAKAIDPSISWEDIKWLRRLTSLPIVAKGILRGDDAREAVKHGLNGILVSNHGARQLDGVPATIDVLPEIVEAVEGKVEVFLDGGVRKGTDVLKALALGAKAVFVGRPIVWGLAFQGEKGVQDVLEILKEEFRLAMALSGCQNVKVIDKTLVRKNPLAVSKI
The assay is described as follows: GO enzymatic assay (coupled fluorescence/HRP assay, glycolate substrate). It is filed as biochemical. The note with it: read-out: Range (range of IC50 values calculated from the enzymatic assays). In outline: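 Human GO incubated with glycolate substrate in 50 mM potassium phosphate, pH 7, with varying inhibitor concentrations. Activity read by coupled HRP fluorescence. IC50 taken from variable-slope sigmoidal dose-response fits of percent inhibition relative to DMSO control.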

SMILES strings stand for the structures. Read-outs that look alike come from different tables or passages of the source.

`O=C(O)c1[nH]nnc1Oc1ccc(Cl)c(OCC2CCCC2)c1` [Compound 353, 4-(4-chloro-3-(cyclopentylmethoxy)phenoxy)-1H-1,2,3-triazole-5-carboxylic acid 2,2,2-trifluoroacetate]: the IC50 (Table 2) is less than 100 nM.

Consider `O=C(O)c1[nH]nnc1OC1CCN(c2cc(Cl)cc(OC(F)(F)F)c2)CC1` [Compound 354, 4-((1-(3-chloro-5-(trifluoromethoxy)phenyl)piperidin-4-yl)oxy)-1H-1,2,3-triazole-5-carboxylic acid], for which the IC50 (Table 2) was less than 100 nM.

On to `O=C(O)c1[nH]nnc1O[C@H]1CC[C@@H](c2cc(Cl)cc(OC(F)(F)F)c2)CC1` [Compound 355, 4-(((cis)-4-(3-chloro-5-(trifluoromethoxy)phenyl)cyclohexyl)oxy)-1H-1,2,3-triazole-5-carboxylic acid], for which, for the setting “Table 2”, the IC50 was less than 100 nM.

As to `O=C(O)c1[nH]nnc1O[C@H]1CC[C@@H](c2ccc(N3CCCC3)cc2)CC1` [Compound 356, 4-(((cis)-4-(4-(pyrrolidin-1-yl)phenyl)cyclohexyl)oxy)-1H-1,2,3-triazole-5-carboxylic acid 2,2,2-trifluoroacetate], where the note is “Table 2”, the IC50 was less than 100 nM.

Take `O=C(O)c1[nH]nnc1Oc1cc(OCC2CCCC2)ccc1Cl` [Compound 357, 4-(2-chloro-5-(cyclopentylmethoxy)phenoxy)-1H-1,2,3-triazole-5-carboxylic acid]: the half-maximal inhibitory concentration (IC50) (Table 2) is less than 100 nM.

As to `O=C(O)c1[nH]nnc1Oc1cc(Cl)cc(OC(F)(F)F)c1` [Compound 358, 4-(3-chloro-5-(trifluoromethoxy)phenoxy)-1H-1,2,3-triazole-5-carboxylic acid], the IC50 (Table 2) was less than 100 nM.

As for `N#Cc1ccc(N2CCC(Oc3nn[nH]c3C(=O)O)CC2)cc1` [Compound 359, 4-((1-(4-cyanophenyl)piperidin-4-yl)oxy)-1H-1,2,3-triazole-5-carboxylic acid 2,2,2-trifluoroacetate], where the note is “Table 2”, the IC50 was less than 100 nM.

`O=C(O)c1[nH]nnc1O[C@H]1CC[C@@H](c2ccc(OC(F)(F)F)c(Cl)c2)CC1` [Compound 360, 4-(((cis)-4-(3-chloro-4-(trifluoromethoxy)phenyl)cyclohexyl)oxy)-1H-1,2,3-triazole-5-carboxylic acid]: the IC50 (Table 2) was less than 100 nM.

On to `O=C(O)c1[nH]nnc1OC1CCN(c2ccc(OC(F)(F)F)c(Cl)c2)CC1` [Compound 361, 4-((1-(3-chloro-4-(trifluoromethoxy)phenyl)piperidin-4-yl)oxy)-1H-1,2,3-triazole-5-carboxylic acid], for which, under “Table 2”, the IC50 is less than 100 nM.

On to `O=C(O)c1[nH]nnc1Oc1ccc(Cl)c(OCc2ccc(F)cc2)c1` [Compound 362, 4-(4-chloro-3-((4-fluorobenzyl)oxy)phenoxy)-1H-1,2,3-triazole-5-carboxylic acid], for which the IC50 (Table 2) was less than 100 nM.

On to `NC(=O)c1ccc([C@H]2CC[C@@H](Oc3nn[nH]c3C(=O)O)CC2)cc1` [Compound 363, 4-(((cis)-4-(4-carbamoylphenyl)cyclohexyl)oxy)-1H-1,2,3-triazole-5-carboxylic acid 2,2,2-trifluoroacetate], for which the IC50 (Table 2) was less than 100 nM.

Turning to `NC(=O)c1ccc([C@H]2CC[C@H](Oc3nn[nH]c3C(=O)O)CC2)cc1` [Compound 364, 4-(((trans)-4-(4-carbamoylphenyl)cyclohexyl)oxy)-1H-1,2,3-triazole-5-carboxylic acid 2,2,2-trifluoroacetate], the IC50 (Table 2) was less than 100 nM.

Take `N#Cc1ccc([C@H]2CC[C@@H](Oc3nn[nH]c3C(=O)O)CC2)cc1` [Compound 365, 4-(((cis)-4-(4-cyanophenyl)cyclohexyl)oxy)-1H-1,2,3-triazole-5-carboxylic acid]: the IC50 (Table 2) was less than 100 nM.

Regarding `O=C(O)c1[nH]nnc1OC(Cc1ccc(-c2ccc(OC(F)(F)F)cc2)cc1)Cc1ccc(-c2ccc(OC(F)(F)F)cc2)cc1` [Compound 366, 4-((1,3-bis(4′-(trifluoromethoxy)-[1,1′-biphenyl]-4-yl)propan-2-yl)oxy)-1H-1,2,3-triazole-5-carboxylic acid], the IC50 (Table 3) is 100 to 1000 nM.

Usually IC50 stands for the concentration that inhibits the measured activity by half.
